Legend:
[1] = system: carbapenem-resistant A. baumannii (CRAB) isolates (n = 67); assay: MIC, broth microdilution (EUCAST), carbapenem-resistant A. baumannii isolates; assay type: cell-based, Acinetobacter baumannii; settings: ETZ fixed 8 mg/L in combinations; for MIC: Acinetobacter baumannii
From the text: (§1) The bacterial strains used in this study comprised 208 clinical isolates from the Spanish National Acinetobacter spp. 2020 Multicenter Collection, which was previously characterized in detail by our research group, including whole-genome sequencing, phylogenetics studies, clonal dynamics, and resistance mechanisms ([2], [29]). Additionally, a collection of A. baumannii ATCC 17978 transformants coding the blaOXA-23, blaOXA-24/40, blaOXA-51, blaOXA-58, blaOXA-143, and blaOXA-201 genes, previously constructed and described by our group ([30]), was used to determine the activity of enmetazobactam against strains carrying the main CHDLs of A. baumannii.
(§2) The antimicrobial susceptibility of the 208 Acinetobacter spp. isolates was assessed using the broth microdilution method, as described in the European Committee on Antimicrobial Susceptibility Testing (EUCAST) v.15 guidelines (http://www.eucast.org/clinical_breakpoints). […] MICs for enmetazobactam alone were assessed as well. […] Subsequently, MIC testing was also conducted with a collection of A. baumannii ATCC 17978 transformants expressing clinically relevant OXA-like carbapenemase genes.
(§3) The A. baumannii ATCC 19606 strain was used as the reference strain in all susceptibility experiments, in duplicate assays. Antibiotics were purchased from Sigma-Aldrich, except enmetazobactam and durlobactam, which were obtained from Advanz Pharma and MedChemExpress, respectively.

[2] = system: carbapenem-susceptible A. baumannii isolates (n = 54); assay: MIC, broth microdilution (EUCAST), carbapenem-susceptible A. baumannii isolates; assay type: cell-based, Acinetobacter baumannii; settings: for MIC: in combinations ETZ fixed at 8 mg/L
From the text: as §1, §2, §3

[3] = Acinetobacter baumannii, carbapenem-susceptible A. baumannii isolates (n = 54), ETZ fixed 8 mg/L in combinations

## C[C@@H](O)[C@H]1C(=O)N2C(C(=O)O)=C(SCCN=CN)C[C@H]12 [imipenem]
[1]; isolate Ab56, ST 1, ADC-75, OXA-69, OXA-23
  MIC: 16 mg/L
[1]; isolate Ab83, ST 25, ADC-5, OXA-64, OXA-23
  MIC: 32 mg/L
[1]; isolate Ab109, ST 1, ADC-75, OXA-69, OXA-23
  MIC: 16 mg/L
[1]; isolate Ab133, ST 2, ADC-30, OXA-66, OXA-58, TEM-12
  MIC: 16 mg/L
[1]; isolate Ab134, ST 2, ADC-30, OXA-66, OXA-58, TEM-12
  MIC: 16 mg/L
[1]; isolate Ab137, ST 85, ADC-2, OXA-94, OXA-23
  MIC: 32 mg/L
[1]; isolate Ab138, ST 745, ADC-30, OXA-66, OXA-58
  MIC: 32 mg/L
[1]; isolate Ab140, ST 85, ADC-2, OXA-94, OXA-23
  MIC: 32 mg/L
[1]; isolate Ab141, ST 745, ADC-30, OXA-66, OXA-58
  MIC: 16 mg/L
[1]; isolate Ab144, ST 745, ADC-30, OXA-66, OXA-58
  MIC: 32 mg/L
[1]; isolate Ab169, ST 2, ADC-30, OXA-66, OXA-23
  MIC: 32 mg/L
[1]; isolate Ab171, ST 2, ADC-30, OXA-66, OXA-23
  MIC: 16 mg/L
[1]; isolate Ab173, ST 2, ISAba1-ADC-30, OXA-66, OXA-23
  MIC: 32 mg/L
[1]; isolate Ab174, ST 2, ADC-30, OXA-66, OXA-23
  MIC: 64 mg/L
[1]; isolate Ab179, ST 2, ADC-30, OXA-66, OXA-23
  MIC: 32 mg/L
[1]; isolate Ab180, ST 2, ADC-30, OXA-66, OXA-24/40
  MIC: 64 mg/L
[1]; isolate Ab181, ST 2, ADC-30, OXA-66, OXA-23
  MIC: 32 mg/L
[1]; isolate Ab182, ST 2, ADC-30, OXA-66, OXA-23
  MIC: 16 mg/L
[1]; isolate Ab183, ST 2, ADC-30, OXA-66, OXA-23
  MIC: 16 mg/L
[1]; isolate Ab184, ST 2, ADC-30, OXA-66, OXA-23
  MIC: 32 mg/L
[1]; isolate Ab186, ST 2, ADC-30, OXA-66, OXA-23
  MIC: 32 mg/L
[1]; isolate Ab191, ST 2, ADC-30, OXA-66, OXA-23
  MIC: 64 mg/L
[1]; isolate Ab192, ST 2, ADC-30, OXA-66, OXA-23
  MIC: 64 mg/L
[1]; isolate Ab194, ST 2, ADC-30, OXA-66, OXA-23
  MIC: 32 mg/L
[1]; isolate Ab199, ST 2, ADC-30, OXA-66, OXA-23
  MIC: 32 mg/L
[1]; isolate Ab201, ST 2, ADC-30, OXA-66, OXA-23
  MIC: 32 mg/L
[1]; isolate Ab204, ST 2, ADC-30, OXA-66, OXA-23
  MIC: 16 mg/L
[1]; cumulative share of CRAB isolates (n = 67) at MIC 0.12 mg/L
  MIC distribution 0.12: 0
[1]; cumulative share of CRAB isolates (n = 67) at MIC 0.25 mg/L
  MIC distribution 0.25: 0
[1]; cumulative share of CRAB isolates (n = 67) at MIC 0.5 mg/L
  MIC distribution 0.5: 0
[1]; cumulative share of CRAB isolates (n = 67) at MIC 1 mg/L
  MIC distribution 1: 0
[1]; cumulative share of CRAB isolates (n = 67) at MIC 2 mg/L
  MIC distribution 2: 0
[1]; cumulative share of CRAB isolates (n = 67) at MIC 4 mg/L
  MIC distribution 4: 0
[1]; cumulative share of CRAB isolates (n = 67) at MIC 8 mg/L
  MIC distribution 8: 9.0
[1]; cumulative share of CRAB isolates (n = 67) at MIC 16 mg/L
  MIC distribution 16: 34.3
[1]; cumulative share of CRAB isolates (n = 67) at MIC 32 mg/L
  MIC distribution 32: 79.1
[1]; cumulative share of CRAB isolates (n = 67) at MIC 64 mg/L
  MIC distribution 64: 100
[1]; cumulative share of CRAB isolates (n = 67) at MIC ≤0.06 mg/L
  MIC distribution ≤0.06: 0
[2]
  MIC distribution 0.12: 61.1
[2]; Acinetobacter baumannii, isolate Ab1, ST 164, ADC-6, OXA-91
  MIC: 0.12 mg/L
[2]; Acinetobacter baumannii, isolate Ab11, ST 239, ADC-2, OXA-51
  MIC: 0.12 mg/L
[2]; Acinetobacter baumannii, isolate Ab34, ST 2182, ADC-2, OXA-130
  MIC: 0.25 mg/L
[2]; Acinetobacter baumannii, isolate Ab38, ST 866, ADC-2, OXA-385
  MIC: 0.25 mg/L
[2]; Acinetobacter baumannii, isolate Ab40, ST 2176, ADC-2, OXA-64
  MIC: 0.25 mg/L
[2]; Acinetobacter baumannii, isolate Ab50, ST 2176, ADC-2, OXA-64
  MIC: 0.25 mg/L
[2]; Acinetobacter baumannii, isolate Ab57, ST 1470, ADC-58, OXA-106
  MIC: 0.25 mg/L
[2]; Acinetobacter baumannii, isolate Ab58, ST 6, ADC-2, OXA-94
  MIC: 0.25 mg/L
[2]; Acinetobacter baumannii, isolate Ab61, ST 1639, ADC-7, OXA-64
  MIC: 0.12 mg/L
[2]; Acinetobacter baumannii, isolate Ab62, ST 265, ADC-2, OXA-91
  MIC: 0.25 mg/L
[2]; Acinetobacter baumannii, isolate Ab67, ST 1, ADC-11, OXA-69
  MIC: 0.25 mg/L
[2]; Acinetobacter baumannii, isolate Ab79, ST 106, ADC-11, OXA-78
  MIC: 0.12 mg/L
[2]; Acinetobacter baumannii, isolate Ab80, ST 2182, ADC-6, OXA-208
  MIC: 0.12 mg/L
[2]; Acinetobacter baumannii, isolate Ab81, ST 25, ADC-79, OXA-64
  MIC: 0.12 mg/L
[2]; Acinetobacter baumannii, isolate Ab93, ST 25, ADC-79, OXA-64
  MIC: 0.12 mg/L
[2]; Acinetobacter baumannii, isolate Ab95, ST 582, ADC-5, OXA-317
  MIC: 0.12 mg/L
[2]; Acinetobacter baumannii, isolate Ab96, ST 582, ADC-5, OXA-317
  MIC: 0.12 mg/L
[2]; Acinetobacter baumannii, isolate Ab100, ST 145, ADC-58, OXA-343
  MIC: 0.12 mg/L
[2]; Acinetobacter baumannii, isolate Ab110, ST 1623, ADC-3, OXA-70
  MIC: 0.25 mg/L
[2]; Acinetobacter baumannii, isolate Ab112, ST 193, ADC-like, OXA-120
  MIC: 0.12 mg/L
[2]; Acinetobacter baumannii, isolate Ab124, ST 2176, ADC-2, OXA-64
  MIC: 0.12 mg/L
[2]; Acinetobacter baumannii, isolate Ab127, ST 2176, ADC-2, OXA-64
  MIC: 0.12 mg/L
[2]; Acinetobacter baumannii, isolate Ab128, ST 2176, ADC-2, OXA-64
  MIC: 0.12 mg/L
[2]; Acinetobacter baumannii, isolate Ab130, ST 32, ADC-79, OXA-100
  MIC: 0.12 mg/L
[2]; Acinetobacter baumannii, isolate Ab131, ST 687, ADC-like, OXA-208
  MIC: 0.12 mg/L
[2]; Acinetobacter baumannii, isolate Ab132, ST 1112, ADC-79, OXA-89
  MIC: 0.12 mg/L
[2]; Acinetobacter baumannii, isolate Ab136, ST 2183, ADC-like, OXA-66
  MIC: 0.12 mg/L
[2]; Acinetobacter baumannii, isolate Ab139, ST 54, ADC-like, OXA-365
  MIC: 0.25 mg/L
[2]; Acinetobacter baumannii, isolate Ab142, ST 1, ADC-like, OXA-69
  MIC: 1 mg/L
[2]; Acinetobacter baumannii, isolate Ab143, ST 1328, ADC-76, OXA-408
  MIC: 0.12 mg/L
[2]; Acinetobacter baumannii, isolate Ab149, ST 1112, ADC-6, OXA-407
  MIC: 0.25 mg/L
[2]; Acinetobacter baumannii, isolate Ab150, ST 2184, ADC-like, OXA-64
  MIC: 0.25 mg/L
[2]; Acinetobacter baumannii, isolate Ab152, ST 132, ADC-2, OXA-120
  MIC: 0.25 mg/L
[2]; Acinetobacter baumannii, isolate Ab158, ST 2034, ADC-2, OXA-217
  MIC: ≤ 0.06 mg/L
[2]; Acinetobacter baumannii, isolate Ab163, ST 132, ADC-2, OXA-120
  MIC: ≤ 0.06 mg/L
[2]; Acinetobacter baumannii, isolate Ab167, ST 1623, ADC-like, OXA-345
  MIC: 0.12 mg/L
[2]; Acinetobacter baumannii, isolate Ab168, ST 1470, ADC-75, OXA-402
  MIC: 0.25 mg/L
[2]; Acinetobacter baumannii, isolate Ab170, ST 2110, ADC-4, OXA-338
  MIC: 0.12 mg/L
[2]; Acinetobacter baumannii, isolate Ab172, ST 2185, ADC-5, OXA-217
  MIC: ≤ 0.06 mg/L
[2]; Acinetobacter baumannii, isolate Ab185, ST 2, ADC-26, OXA-66
  MIC: 0.25 mg/L
[2]; Acinetobacter baumannii, isolate Ab187, ST 105, ADC-2, OXA-430
  MIC: ≤ 0.06 mg/L
[2]; Acinetobacter baumannii, isolate Ab188, ST 203, ADC-6, OXA-217, PDC-1
  MIC: 0.12 mg/L
[2]; Acinetobacter baumannii, isolate Ab189, ST 1405, ADC-3, OXA-120
  MIC: ≤ 0.06 mg/L
[2]; Acinetobacter baumannii, isolate Ab190, ST 2186, ADC-6, OXA-413
  MIC: 0.25 mg/L
[2]; Acinetobacter baumannii, isolate Ab193, ST 164, ADC-6, OXA-91
  MIC: ≤ 0.06 mg/L
[2]; Acinetobacter baumannii, isolate Ab195, ST 1, ADC-11, OXA-69
  MIC: 0.12 mg/L
[2]; Acinetobacter baumannii, isolate Ab200, ST 1336, ADC-2, OXA-51
  MIC: 0.12 mg/L
[2]; Acinetobacter baumannii, isolate Ab202, ST 1, ADC-11, OXA-69
  MIC: 0.12 mg/L
[2]; Acinetobacter baumannii, isolate Ab203, ST 221, ADC-6, OXA-88
  MIC: 0.12 mg/L
[2]; Acinetobacter baumannii, isolate Ab206, ST 2187, ADC-58, OXA-69
  MIC: 0.25 mg/L
[2]; Acinetobacter baumannii, isolate Ab209
  MIC: 0.25 mg/L
[2]; Acinetobacter baumannii, isolate Ab213
  MIC: 0.12 mg/L
[2]; Acinetobacter baumannii, isolate Ab218
  MIC: 0.25 mg/L
[2]; Acinetobacter baumannii, isolate Ab220
  MIC: 0.25 mg/L
[2]; [3]
  MIC50: 0.12 mg/L
  MIC90: 0.25 mg/L
[2]; cumulative share of carbapenem-susceptible A. baumannii isolates (n = 54) at MIC 0.25 mg/L, ETZ fixed 8 mg/L in combinations
  MIC distribution 0.25: 98.1
[2]; cumulative share of carbapenem-susceptible A. baumannii isolates (n = 54) at MIC 0.5 mg/L, ETZ fixed 8 mg/L in combinations
  MIC distribution 0.5: 98.1
[2]; cumulative share of carbapenem-susceptible A. baumannii isolates (n = 54) at MIC 1 mg/L, ETZ fixed 8 mg/L in combinations
  MIC distribution 1: 100
[2]; cumulative share of carbapenem-susceptible A. baumannii isolates (n = 54) at MIC 2 mg/L, ETZ fixed 8 mg/L in combinations
  MIC distribution 2: 100
[2]; cumulative share of carbapenem-susceptible A. baumannii isolates (n = 54) at MIC 4 mg/L, ETZ fixed 8 mg/L in combinations
  MIC distribution 4: 100
[2]; cumulative share of carbapenem-susceptible A. baumannii isolates (n = 54) at MIC 8 mg/L, ETZ fixed 8 mg/L in combinations
  MIC distribution 8: 100
[2]; cumulative share of carbapenem-susceptible A. baumannii isolates (n = 54) at MIC 16 mg/L, ETZ fixed 8 mg/L in combinations
  MIC distribution 16: 100
[2]; cumulative share of carbapenem-susceptible A. baumannii isolates (n = 54) at MIC ≤0.06 mg/L, ETZ fixed 8 mg/L in combinations
  MIC distribution ≤0.06: 11.1
[2]; cumulative share of carbapenem-susceptible A. baumannii isolates (n = 54) at MIC ≥32 mg/L, ETZ fixed 8 mg/L in combinations
  MIC distribution ≥32: 100

— article PMC12888861, “Antibacterial activity of enmetazobactam against Acinetobacter spp.: a molecular dissection of mechanism of action and resistance determinants” (Antimicrobial Agents and Chemotherapy, 2025)
